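Each compound was tested at five concentrations against cells in 96-well plates for 48 hours. GI50: concentration for 50% inhibition of growth.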 Calls of active or inactive are those of the source. No stated cut-off is given here; in the data, active = GI50 up to about 1.1 µM and inactive = higher.
Tests used:
Assay in all cases: growth of human tumour cells (NCI), 48 h
[1] = test system: KM12
[2] = test system: LOX IMVI
[3] = test system: A549
[4] = test system: SF-268
[5] = test system: SW-620
[6] = test system: SK-MEL-5
[7] = test system: EKVX
[8] = test system: SF-295
[9] = test system: RXF 393
[10] = test system: HT-29
[11] = test system: OVCAR-8
[12] = test system: SF-539
[13] = test system: SNB-75
[14] = test system: K562
[15] = test system: OVCAR-3
[16] = test system: COLO 205
[17] = test system: SK-OV-3
[18] = test system: HCC 2998
[19] = test system: NCI-H522
[20] = test system: NCI-H23

Measured: GI50

CCOC(=O)C(NC(C)=O)(Nc1ccc(F)cc1)C(F)(F)F (centres undefined)
inactive: [1] 83.2 µM | [2] > 100 µM | [3] 39.3 µM | [4] > 100 µM | [5] 28.8 µM | [6] 3.03 µM | [7] > 100 µM | [8] 16.6 µM | [9] 40.3 µM | [10] > 100 µM | [11] > 100 µM | [12] > 100 µM | [13] > 100 µM | [14] 2.61 µM | [15] > 100 µM | [16] > 100 µM | [17] > 100 µM | [18] 5.18 µM | [19] > 100 µM | [20] > 100 µM

C=CCn1c2ccccc2c2c(C)c3cnccc3c(C)c21
inactive: [1] 4.38 µM | [2] 6.82 µM | [3] 9.77 µM | [4] 7.98 µM | [5] 6.61 µM | [6] 6.82 µM | [7] 12.1 µM | [8] 9.86 µM | [9] 4.27 µM | [10] 8.93 µM | [11] 5.53 µM | [12] 10.7 µM | [13] 13.2 µM | [14] 5.6 µM | [15] 11.1 µM | [16] 6.4 µM | [17] 5.9 µM | [18] 20.4 µM | [19] 5.52 µM | [20] 6.95 µM

O=C1c2ccccc2OCC1/C=N/O (centres undefined)
inactive: [1] 96.8 µM | [2] 31.3 µM | [3] > 100 µM | [4] > 58.9 µM | [5] > 100 µM | [6] > 85.5 µM | [7] 65.6 µM | [8] > 100 µM | [9] 32.4 µM | [10] 62.7 µM | [11] > 100 µM | [12] 76 µM | [13] > 100 µM | [14] > 100 µM | [15] > 100 µM | [17] > 100 µM | [18] > 100 µM | [19] 24.9 µM | [20] > 100 µM

COc1cc(-c2ccc(/N=N/c3ccc4c(S(=O)(=O)O)cc(S(=O)(=O)O)c(N)c4c3O)c(OC)c2)ccc1/N=N/c1ccc2c(S(=O)(=O)O)cc(S(=O)(=O)O)c(N)c2c1O
inactive: [1] > 100 µM | [2] > 100 µM | [3] > 100 µM | [4] > 100 µM | [5] > 100 µM | [6] > 100 µM | [7] > 100 µM | [8] > 100 µM | [9] > 100 µM | [10] > 100 µM | [11] > 100 µM | [12] > 100 µM | [13] > 100 µM | [14] > 100 µM | [15] > 100 µM | [16] > 100 µM | [17] > 100 µM | [18] > 100 µM | [19] > 100 µM | [20] > 100 µM
